Like-named read-outs stand apart in the source and are kept apart here.
Key:
[1] = design: method as in PMID 24838869; conditions: dissociation of [Sc(DOTA)]; cited from earlier work
[2] = cited from earlier work
[3] = Fluoride binding of [Sc(PC2AM^nBu)]^+ (ternary complex stability), 19F NMR titration; assay type: physicochemical; conditions: for log K ScLF: stability constant of the ternary fluoride complex, 19F NMR, pH = 5.2, I = 0.15 M NaCl, 25 °C; for K= [Sc(L)F]/[Sc(L)]*[F^-] / log K: titration point: complex 0.0050 M, pH 5.20, I = 0.15 M NaCl, 298 K
Source text: Sc(III) is a typical “hard” cation, forming very stable complexes with fluoride anion.^[ [51], [52] ^] […] The formation of the ternary [Sc(PC2AM^nBu)(F)] complex can be followed by […], as two sets of signals (Δδ ∼ 20 Hz) indicate a slow exchange regime on the […] time scale (Figure S16). Measuring the intensities of the free and bound fluoride signals, the stability constant (Eqn. 6) of the [Sc(PC2AM^nBu)(F)] complex (Eqn. 5) can be calculated (Table S1).
(5) [Sc(PC2AM^nBu)]^++F^−⇌[Sc(PC2AM^nBu)(F)] (6) KScLF=ScPC2AM^nBuF/[ScPC2AM^nBu^+]F^−
Table S1. Summary of data used for the calculation of the stability constant, log K[Sc(PC2AM^nBu)(F)] by titration of 0.005M [Sc(PC2AM^nBu)]^+ parent complex with different amounts of F^- (0.005 - 0.01 M concentration range) followed by 376.4 MHz ^19F NMR (I = 0.15 M NaCl, c Sc(PC2AM^nBu) = 5 mM, pH=5.20, T= 298 K).

[4] = Fluoride exchange kinetics, 19F NMR selective magnetization transfer; assay type: physicochemical; conditions: complex 5 mM, cF = 10 mM, 14% uncertainty; for k obs ^AB (fluoride exchange, complex site A to free F^− site B): 298 K
Source text: Considering ^18F‐labeling and PET application of the [Sc(L)(F)]‐type mixed complexes, one has to check the inertness of the mixed complex against F‐exchange:
(7) [Sc(PC2AM^nBu)F]+∗F^−⇌[Sc(PC2AM^nBu)∗F]+F^− where * is used to indicate typographically the exchanging anion.
The ^19F NMR signal of the mixed complex is somewhat broadened (ν ½ = 150 Hz) due to the relaxation effect of the quadrupole ^45Sc (I = 7/2) nuclei, while the free fluoride is narrow (ν ½ = 4.5 Hz), indicating the absence of chemical exchange on the T 2‐time scale (Figure S24). […] (site A) and free F^− (site B) with k obs ^AB value of 0.6 s^−1 (14% uncertainty), indicating remarkable inertness of the monodentate fluoride (Figure S25). Very recently, 3–4 orders of magnitude larger fluoride exchange rate constants have been published for two Y(III) complexes formed with open‐chain ligands, [Y(EGTA)(F)]^2− and [Y(OBETA)(H2O)(F)]^2−.^[ [56] ^] […] At the same time, the k obs value obtained for the [Sc(OPC2A)(F)] complex (k obs = 16.5 s^−1) is lower by an order of magnitude than that of [Yb(DTMA)(F)]^2+ [ [45] ^] which is likely to be rationalized by the more rigid environment around the M(III)‐F entity.
Figure S25. Selective magnetization transfer (MT) experiment (intensity vs. delay time) curves for [Sc(PC2AAM^nBu)(F)] (c[Sc(PC2AAMnBu)(F)] = 5 mM, cF = 10 mM, pH = 5.50, 298 K). The symbols show the measured intensities: red triangle [Sc(PC2AAM^nBu)(F)] (site A); blue square, free F^- (site B), the curves represent the fitted data (k^obsBA = 1.2 s^-1 (14% uncertainty), k^obsAB = 0.60 s^-1 (14% uncertainty), T1,A= 0.211 s; T1,B = 1.28 s (fixed)).

In the case of O=C(O)CN1CCN(CC(=O)O)CCN(CC(=O)O)CCN(CC(=O)O)CC1 [DOTA], the “k 0 (spontaneous dissociation)” value [1] is listed as 6e-06 s⁻¹ and the “k 1 (acid‐assisted dissociation)” value [1] is listed as 4.3e-06 M⁻¹ s⁻¹.
For F.O=C([O-])CN(CCN(CC(=O)[O-])CC(=O)O)CC(=O)[O-].[Al+3] [[Al(EDTA)(F)]^2−], the “k obs (fluoride exchange)” value ([2]; estimate, no magnetization effect in MT experiment) is given as “greater than or equal to 0.2 s^−1”.
In the case of O=C([O-])CN1CCOCCN(CC(=O)[O-])Cc2cccc(n2)C1.[F-].[Sc+3] [[Sc(OPC2A)(F)]], the “k obs (fluoride exchange)” value ([2]; literature value) is listed as 16.5 s⁻¹.
In the case of CCCCNC(=O)CN1CCN(CC(=O)[O-])Cc2cccc(n2)CN(CC(=O)[O-])CC1.[F-].[Sc+3] [[Sc(PC2AM^nBu)(F)]], the “log K ScLF” value [3] was 2.5(2), the “log K ScLF” value ([3]; listed as [Sc(PC2AMnBu)(F)]) was 2.5 and the “K= [Sc(L)F]/[Sc(L)]*[F^-]” value ([3]; F^- 0.0050 M) was 356.65. For the same molecule, the “log K” value ([3]; F^- 0.0050 M) was 2.55, the “K= [Sc(L)F]/[Sc(L)]*[F^-]” value ([3]; F^- 0.0060 M) was 508.89 and the “log K” value ([3]; F^- 0.0060 M) was 2.71. The “K= [Sc(L)F]/[Sc(L)]*[F^-]” value ([3]; F^- 0.0070 M) was 342.86, the “log K” value ([3]; F^- 0.0070 M) was 2.54 and the “K= [Sc(L)F]/[Sc(L)]*[F^-]” value ([3]; F^- 0.0080 M) was 222.09. The “log K” value ([3]; F^- 0.0080 M) was 2.35, the “K= [Sc(L)F]/[Sc(L)]*[F^-]” value ([3]; F^- 0.0100 M) was 150.79 and the “log K” value ([3]; F^- 0.0100 M) was 2.18. The “k obs ^AB (fluoride exchange, complex site A to free F^− site B)” value [4] was 0.6 s⁻¹, the “k obs ^AB (fluoride exchange, complex site A to free F^− site B)” value ([4]; listed as [Sc(PC2AAM^nBu)(F)]) was 0.60 s⁻¹ and the “k^obsBA (fluoride exchange, free F^- site B to complex site A)” value ([4]; pH = 5.50, 298 K) was 1.2 s⁻¹.
For CNC(=O)CN1CCN(CC(=O)NC)CCN(CC(=O)NC)CCN(CC(=O)NC)CC1.[F-].[Yb+3] [[Yb(DTMA)(F)]^2+], the “k obs (fluoride exchange)” value ([2]; literature value) is listed as 216 s⁻¹.

From paper PMC12731536, “Sc(III) Complexes of Pyclen Derivative Ligands as Probes for Hypoxia: Synthesis, Chemical Characterization, ^44Sc‐Radiolabeling, and Preclinical Assessment” (Chemistry (Weinheim an Der Bergstrasse, Germany), 2025)
